# Test results reported in US6465494B1, “Methods for treatment of cystic fibrosis” (Cell Pathways, Inc., priority 2001, dated 2002).
# Where a name gives a salt, the structure may show the parent alone.
# How the values were obtained:
# PDE5 [1] = biological target: T1, PDE5 (Homo sapiens, UniProt O76074); test: competitive (with cGMP) binding to PDE5
# PDE1 = test: PDE inhibition, similar protocols: PDE1; assay type: biochemical
# PDE4 = test: PDE inhibition, similar protocols: PDE4; assay type: biochemical
# [2] = acute toxicity study in rats; conditions: rat, in vivo; for LD50: rats
# [3] = acute and seven-dose toxicity in dogs (capsules); conditions: dog, in vivo
# Procedure: Therefore, these dogs were subsequently administered seven consecutive doses of 1000 mg/kg/day.
# [4] = seven-day dose-range finding study in rats; assay type: in vivo; conditions: 7 days
# 28-day study in rats = assay type: in vivo
# Procedure: A 28-day study in rats was also carried out at 0, 50, 500 and 2000 mg/kg/day.
# [5] = 91-day oral study in dogs; assay type: in vivo
# [6] = single, escalating dose human clinical safety study; assay type: in vivo; conditions: oral, 50 mg BID, 100 mg BID, 200 mg BID and 400 mg BID
# [7] = test system: TNF-α secreted by TPA-induced U937 cells; test: TNF-α immunoassay on culture media of TPA-treated U937 cells; assay type: cell-based
# Procedure: One function of macrophages is to modulate the activity of other inflammatory cells through various cytokine molecules.
# TNF-αlevels in the cell culture media were determined by using the TNF-α Immunoassay from R&D Systems (Cat. # DTA50) according to the manufacturer's protocol.
# PDE5 [8] = biological target: T1, PDE5; test: cGMP PDE inhibition, 3H-cGMP hydrolysis: PDE5; assay type: biochemical; set-up: partially purified cGMP-specific PDE isolated from HT-29 cells; endogenous in cells; host or cells: HT-29
# Procedure: (Thompson, W. J., Teraski, W. L., Epstein, P. M., Strada, S. J., Advances in Cyclic Nucleotide Research, 10:69-92, 1979, which is incorporated herein by reference). […] The mixture is incubated at 30° C. for 10 minutes with isolated PDE2 and/or PDE5. Reactions are terminated, for example, by boiling the reaction mixture for 75 seconds. After cooling on ice, 100 μl of 0.5 mg/mL snake venom (O. Hannah venom available from Sigma) is added and incubated for 10 minutes at 30° C. This reaction is then terminated by the addition of an alcohol, e.g. 1 mL of 100% methanol. Assay samples are applied to 1 mL Dowex 1-X8 column; and washed with 1 mL of 100% methanol. The amount of radioactivity in the breakthrough and the wash from the column is combined and measured with a scintillation counter. The degree of phosphodiesterase inhibition is determined by calculating the amount of radioactivity in drug-treated reactions and comparing against a control sample (a reaction mixture lacking the tested compound but with drug solvent).
# Compounds of this invention are also PDE2 and PDE5 inhibitors as taught in part U.S. patent application Ser. No. 09/046,739 filed Mar. 24, 1998. […] The amount of radioactivity in the breakthrough and the wash from the columns in then measured with a scintillation counter. […]
# [9] = 28 days, 50, 500 and 2000 mg/kg/day
smiles,measurement,setting,value
"CC1=C(CC(=O)NCc2ccccc2)c2cc(F)ccc2/C1=C\c1ccncc1 [Example 38, (Z)-5-fluoro-2-methyl-(4-pyridylidene)-3-(N-benzyl)indenylacetamide hydrochloride]",competitive (with cGMP) binding to PDE 5,PDE5 [1],does competitively (with cGMP) bind to PDE 5
same,IC50,PDE1,3 µM
same,IC50,PDE4,6 µM
same,acute toxicity on a single-dose basis,[2],not acutely toxic
same,body weight gain,"[2]; ip, 1000 mg/kg",reduced body weight gain
same,necropsy finding,"[2]; ip, 1000 mg/kg",mesenteric adhesions seen in some animals
same,LD50,"[2]; ip, 1000 mg/kg, intraperitoneal, read-out: intraperitoneal LD50",> 1000 mg/kg
same,body weight gains,"[2]; po, 2000 mg/kg",slightly reduced
same,LD50,"[2]; oral, read-out: oral LD50",> 2000 mg/kg
same,LD50,"[3]; both sexes, 1000 mg/kg, dogs, oral",> 1000 mg/kg
same,signs of toxicity,[3]; 1000 mg/kg,no signs of toxicity
same,signs of drug-related effects,[3]; 1000 mg/kg/day,At no time in either dosing phase were any obvious signs of drug-related effects observed
same,observable signs of toxicity,[4]; 50 mg/kg/day,no observable signs of toxicity
same,treatment-related effects,[4]; 500 mg/kg/day,limited to an increase in absolute and relative liver weights in female rats
same,treatment-related effects,[4]; 2000 mg/kg/day,"labored breathing and/or abnormal respiratory sounds, decreased weights gains and food consumption in male rats, and increased liver weights in female rats"
same,"hematological, blood chemistry and microscopic pathology changes","[4]; any dose level (50, 500, 2000 mg/kg/day)",No hematological or blood chemistry changes nor any microscopic a pathology changes
same,macroscopic tissue changes at necropsy,28-day study in rats; 28 days,No macroscopic tissue changes
same,histopathological evaluation of tissues,"28-day study in rats; 28 days, 500 mg/kg/day",one female at 500 mg/kg/day had increased mitotic figures in the thyroid gland
same,liver weights,"28-day study in rats; 28 days, 2000 mg/kg/day",statistically significant increase in liver weights
same,thyroid weights,"28-day study in rats; 28 days, 2000 mg/kg/day",statistically significant increases in thyroid weights
same,"body weight changes, ophthalmoscopic examinations, hematological and blood chemistry values, urinalysis",28-day study in rats; [9],unremarkable
same,clinical observations,28-day study in rats; [9],no abnormal clinical observations
same,liver and thyroid weight increases at the lower doses,"28-day study in rats; 28 days, 50 and 500 mg/kg/day",not statistically significant
same,histopathological evaluation of tissues,"28-day study in rats; 28 days, small number of animals at 2000 mg/kg/day","traces of follicular cell hypertrophy, increased numbers of mitotic figures (suggestive of possible cell proliferation) in the thyroid gland and mild centrilobular hypertrophy in the liver"
same,tolerability,[5]; 91 days,well tolerated
same,feces observation,"[5]; 91 days, 150 and 300 mg/kg/day",Orange discoloration of the feces
same,body weights,"[5]; 91 days, highest dose group",Slightly lowered body weights
same,liver weights,"[5]; 91 days, highest dose group",increased liver weights
same,microscopic alterations of liver,"[5]; 91 days, highest dose group",no microscopic alterations
same,toxicological effects overall,"[5]; oral, 91 consecutive days, 50, 150 and 300 mg/kg/day",no toxicological effects
same,side effects,[6],no significant side effects at any dose
same,level of TNF-α secreted into cell culture media,[7],significantly reduced
same,IC50,PDE5 [8],4 µM
